According to US11304944B2, “MetAP2 inhibitors and methods of treating obesity” (SynDevRx, Inc., priority 2013, dated 2022):
Structures can show the parent of a compound that is named as a salt. Where two headings read alike, the source gives them in different places.

Experiments:
[1] = cited from earlier work
[2] = tested on: DIO Levin rats; assay: In vivo testing DIO Levin rats: weight changes, food consumption, insulin, leptin levels
Description: CKD-732 as referred to herein is the hemitartrate salt of the following structure:
Test articles were administered subcutaneously on an every 4 day (q4d) schedule in a diet-induced obesity (DIO) Levin-DS rat model. […] A dietary intervention (Standard Chow, Labdiet 5001; 3.4 kcal/g) was included to compare to the drug interventions. Upon arrival at three weeks of age, the male rats received ad libitum pellets of Harlan Diet TD.06414, 60% of calories from fat, 21% of calories from carbohydrate; 5.1 kcal/g. Prior to dosing the rats were randomized into groups of three animals with an average body weight of 595 gm. […] Compound 1 in the form of the hemitartrate and CKD-732 in the form of the hemitartrate were dissolved in ethanol prior to dilution with vehicle. All doses were administered at a volume of 5.0 ml/kg. […] On day 1, first dose, the rats were 14 weeks of age. Also on day 1, Group 2 was switched from the high fat diet to a standard chow diet; the remaining groups were maintained on a high fat diet for the duration of the study.
(§1) Animals were weighed every other day. Food consumption was measured weekly. On an approximately weekly basis throughout the study, blood samples were taken for assessment of serum chemistries including glucose and insulin. On Day 48 all rats underwent a 4 hour fasted Oral Glucose Tolerance Test (OGTT). Animals were dosed orally (per os, PO) at 8 mL/kg 25% glucose (2 g/kg). On day 68, gross pathology was performed to determine body composition.

[3] = tested on: DIO Levin rats; assay: Oral Glucose Tolerance Test (OGTT) Day 48 and HOMA-ir in DIO Levin rats; type: in vivo; details: 1.15 mg/kg q4d sc;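 on Blood Glucose pre-OGTT: blood glucose in mg/dL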;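 on Blood Glucose, Time 120: blood glucose in mg/dL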;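 on Blood Glucose, Time 15: blood glucose in mg/dL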;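 on Blood Glucose, Time 30: blood glucose in mg/dL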;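 on Blood Glucose, Time 60: blood glucose in mg/dL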;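 on Blood Glucose, Time 90: blood glucose in mg/dL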
Description: as §1

[4] = tested on: DIO C57Bl/6 mice; assay: In vivo testing DIO mice schedule-dose response: weight, food intake, ipGTT, HOMA-ir data
Description: Animals were dosed according to the schedule in Table 17 below.
Compound dosing occurred between 9 and 10 am on the day of dosing. Groups 6 and 7 received a total of 17 doses. The q4d groups (1, 2, 3, 4, 8, 9) received a total of 9 doses. The q8d group (5) received a total of 5 drug doses. Body weight and food intake were measured every other day. Blood glucose was measured on Day −7, Day 0, Day 7, Day 14, Day 21 and Day 28 at 9:00 am in fed state (BG measured before dose on dosing days). BG was measured by glucometer. An intraperitoneal glucose tolerance test (ipGTT, 6 h fasting) was performed.
The study was terminated on day 34. Liver and epididymal white adipose tissues (eWAT) were harvested, weighed and stored at −80° C. Sera was collected to determine: AST, ALT, ALP, CK, BUN, creatinine, calcium, potassium, sodium, chloride, total protein, albumin, total bilirubin, glucose, triglyceride and cholesterol. Insulin samples were measured using a commercial kit.

[5] = tested on: DIO C57Bl6 mice; assay: In vivo testing DIO C57Bl6 mice: weight changes, food consumption, body composition (Compound 16 vs TNP-470)
Description: C57Bl6 male mice (N=6) thirteen weeks old with an average of weight of 34 g were ad libitum fed TD.06414 a high fat diet composed of 60% Kcal from fat (Harlan diet). On study day 1 animals were randomized into groups so that the average weight of each group was 33.9 g. […] Animals were weighed every other day. Food consumption was measured weekly. On day 33 gross pathology was performed to determine body composition.

[6] = qod (Cmpd 16 1 mg/kg qod), Day 33

SMILES: COC1C(OC(=O)N[C@H]2CC[C@H](N)CC2)CC[C@]2(CO2)C1[C@@]1(C)O[C@@H]1CC=C(C)C (stereo partly drawn) (as salt: tartrate) [Compound 1, Fumagill-6-yl [trans-(4-aminocyclohexyl)]carbamate]
- melting point: 180 to 185 °C

SMILES: COC1C(OC(=O)/C=C/c2ccc(OCCN(C)C)cc2)CC[C@]2(CO2)C1[C@@]1(C)O[C@@H]1CC=C(C)C (stereo partly shown) [CKD-732, reference compound]
- MTD ([1]; every fourth day schedule, due to confusion and insomnia): 15 mg/m2/day
- lower body weight than vehicle ([2]; 1.15 mg/kg Q4D): 3.2%
- Avg. Insulin Day 7 ([2]; 1.15 mg/kg q4d sc): 2.08 ng/mL
- Avg. Insulin Day 15 ([2]; 1.15 mg/kg q4d sc): 1.91 ng/mL
- Avg. Insulin Day 23 ([2]; 1.15 mg/kg q4d sc): 1.60 ng/mL
- Avg. Insulin Day 48 ([2]; 1.15 mg/kg q4d sc): 1.56 ng/mL
- Avg. Insulin Pre-dosing ([2]; 1.15 mg/kg q4d sc): 2.58 ng/mL
- Group Average Food Consumption Day 1-8 ([2]; 1.15 mg/kg q4d sc): 131.8 g
- Group Average Food Consumption Day 9-15 ([2]; 1.15 mg/kg q4d sc): 110.5 g
- Group Average Food Consumption Day 16-23 ([2]; 1.15 mg/kg q4d sc): 108.7 g
- Group Average Food Consumption Day 24-30 ([2]; 1.15 mg/kg q4d sc): 133.9 g
- Group Average Food Consumption Day 31-36 ([2]; 1.15 mg/kg q4d sc): 153.9 g
- Group Average Food Consumption Day 37-43 ([2]; 1.15 mg/kg q4d sc): 148.7 g
- Group Average Food Consumption Day 44-50 ([2]; 1.15 mg/kg q4d sc): 112.3 g
- Group Average Food Consumption Day 51-57 ([2]; 1.15 mg/kg q4d sc): 135.0 g
- Group Average Food Consumption Day 58-63 ([2]; 1.15 mg/kg q4d sc): 125.5 g
- Group Average Food Consumption Day 63-68 ([2]; 1.15 mg/kg q4d sc): 61.9 g
- Leptin Levels Day 29 ([2]; 1.15 mg/kg q4d sc): 4.30
- Leptin Levels Pre-dose ([2]; 1.15 mg/kg q4d sc): 4.43
- Leptin Levels, Day 29, % Change from Baseline ([2]; 1.15 mg/kg q4d sc): −3.0%
- Final BW ([2]; 1.15 mg/kg q4d sc, after 68 days, 60% fat diet): 714.0 g
- Blood Glucose pre-OGTT [3]: 123 mg/dL
- HOMA-ir (Insulin Sensitivity) 15 min [3]: 49.0
- HOMA-ir (Insulin Sensitivity) 30 min [3]: 35.9
- HOMA-ir (Insulin Sensitivity) Pre-dose [3]: 13.6
- Blood Glucose, Time 15 ([3]; OGTT): 174 mg/dL
- Blood Glucose, Time 30 ([3]; OGTT): 171 mg/dL
- Blood Glucose, Time 60 ([3]; OGTT): 158 mg/dL
- Blood Glucose, Time 90 ([3]; OGTT): 153 mg/dL
- Blood Glucose, Time 120 ([3]; OGTT): 144 mg/dL
- BW ([3]; at OGTT): 686 g
- Glucose, ipGTT 0 min ([4]; 1 mg/kg Q2D): 161.3 mg/dL
- Glucose, ipGTT 15 min ([4]; 1 mg/kg Q2D): 469.2 mg/dL
- Insulin, ipGTT 0 min ([4]; 1 mg/kg Q2D): 54.8 uU/ml
- Insulin, ipGTT 15 min ([4]; 1 mg/kg Q2D): 89.3 uU/ml
- Glucose, ipGTT 0 min ([4]; 2 mg/kg q4d): 182.6 mg/dL
- Glucose, ipGTT 15 min ([4]; 2 mg/kg q4d): 498.6 mg/dL
- Insulin, ipGTT 0 min ([4]; 2 mg/kg q4d): 99.8 uU/ml
- Insulin, ipGTT 15 min ([4]; 2 mg/kg q4d): 118.3 uU/ml
- response (weight loss) by schedule ([4]; Q2D (QOD) schedule versus Q4D, FIG. 20): better response than the same average daily dose administered on a Q4D schedule

SMILES: CO[C@@H]1[C@H](OC(=O)NC(=O)CCl)CC[C@]2(CO2)[C@H]1[C@@]1(C)O[C@@H]1CC=C(C)C [TNP-470, chloroacetylcarbamoylfumagillol, reference compound]
- MTD ([1]; in combination with paclitaxel, dosed three times per week): 60 mg/m2
- Body Weight Day 33 ([5]; 0.5 mg/kg/day, qod, sc): 34.1 g
- B.W. [5, 6]: 34.1 grams
- Epididymal Fat [5, 6]: 1.54 grams
- Inguinal Fat [5, 6]: 1.21 grams
- Liver [5, 6]: 1.15 grams
- Retroperitoneal Fat [5, 6]: 0.80 grams
- Total Fat [5, 6]: 3.55 grams
